Test results as given in patent US10689377B2 (Mirati Therapeutics, Inc., priority 2017, dated 2020).

Experiments:
KRas G12C [1] = molecular target: KRas G12C (Homo sapiens, UniProt P01116, C118S/C51S/C80L/G12C); experiment: KRas G12C Modification Assay (LCMS detection of covalent adduct); format: binding; settings: normalized percent of control; 5 μM concentration for 3 hours
Protocol: A 10 μL aliquot of each protein solution was then transferred to a 384 well microtiter plate. Initial compound stocks were generated at fifty times their desired final assay concentration in DMSO.
Exemplary compounds of Formula (I) were diluted 25-fold into K-Ras Assay Buffer to a final of two times their final concentration. A 10 μL aliquot of each diluted compound solution was then added to each of the protein solutions in the microtiter plate to initiate reaction. […] At each time point, the reactions were quenched with 20 μL of a 25 mM acetic acid solution. […] Once all reactions were quenched, the plates were heat sealed and the samples were injected into a LC/MS system for data acquisition.
Samples were injected in their liquid phase onto a C-3 reverse phase column to remove assay buffer and prepare the samples for mass spectrometer. The proteins were eluted from the column using an acetonitrile gradient and fed directly into the mass analyzer. Initial raw data analysis took place in Agilent MassHunter software immediately post data acquisition.
Raw data analysis of the intact protein was exclusively a deconvolution of the multiple charge states of each protein in solution using a maximum entropy deconvolution provided in Mass Hunter. To minimize complexity, only the data over limited mass ranges were considered for analysis, with a minimum of one Dalton mass step intervals. The heights of all masses identified during raw data analysis were exported to be further analyzed in Spotfire® data analysis software.
Final data analysis was a multistep process in the Spotfire® data analysis software package. Briefly, each protein mass was calculated as a percent of the total signal of that sample, that percentage was then normalized to the percentage of signal of the protein in the absence of reactive compounds. Those normalized signals were reported as normalized percent of control (POC). […] Key: “A”≤25% POC; “B”>25% POC-≤50% POC; “C”>50% POC and ND=not determined.

KRas G12C [2] = molecular target: KRas G12C (Homo sapiens, UniProt P01116, G12C); experiment: Cellular inhibition of KRas G12C measured by Phospho-ERK in NCI-H358 cells; format: cell-based; settings: pERK(Thr202/Tyr204) normalized with GAPDH, NCI-H358 cells, 3 hours; read-out: IC50
Procedure, shortened: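 NCI-H358 cells treated 3 h with compound (0.5% DMSO final), then fixed and methanol-permeabilised. In-cell immunofluorescence measured pERK(Thr202/Tyr204) normalised to GAPDH as percent of DMSO control. IC50 from a 4-parameter dose-response fit.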

Row | POC (KRas G12C [1]) | IC50 (KRas G12C [2]) [nM] | SMILES
1 | A (“A”≤25% POC) | > 1000 | CC(=O)N(C)C/C=C/C(=O)N1CCN(c2nc(OC[C@@H]3CCCN3C)nc3c2CCN(c2cccc4cccc(C)c24)C3)C[C@@H]1CC#N [Example 587]
2 | C (“C”>50% POC) | 0.1 to 1000 | C=CC(=O)N1CCN(c2nc(OC[C@@H]3CCCN3C)nc3c2CCN(c2cccc4c2OCC4)C3)C[C@@H]1CC#N [Example 435, 2-((S)-1-acryloyl-4-(7-(2,3-dihydrobenzofuran-7-yl)-2-(((S)-1-methylpyrrolidin-2-yl)methoxy)-5,6,7,8-tetrahydropyrido[3,4-d]pyrimidin-4-yl)piperazin-2-yl)acetonitrile]
3 | C (“C”>50% POC) | 0.1 to 1000 | C=C(F)C(=O)N1CCN(c2nc(OC[C@@H]3CCCN3C)nc3c2CCN(c2cc(O)cc4ccccc24)C3)C[C@@H]1CC#N [Example 556, 2-[(2S)-1-(2-Fluoroprop-2-enoyl)-4-[7-(3-hydroxy-1-naphthyl)-2-[[(2S)-1-methylpyrrolidin-2-yl]methoxy]-6,8-dihydro-5H-pyrido[3,4-d]pyrimidin-4-yl]piperazin-2-yl]acetonitrile]
4 | C (“C”>50% POC) | 0.1 to 1000 | C=C(F)C(=O)N1CCN(c2nc(OC[C@@H]3CCCN3C)nc3c2CCN(c2cncc4cccc(Cl)c24)C3)C[C@@H]1CC#N [Example 593, 2-((S)-4-(7-(5-Chloroisoquinolin-4-yl)-2-(((S)-1-methylpyrrolidin-2-yl)methoxy)-5,6,7,8-tetrahydropyrido[3,4-d]pyrimidin-4-yl)-1-(2-fluoroacryloyl)piperazin-2-yl)acetonitrile]
5 | C (“C”>50% POC) | 0.1 to 1000 | Cc1cccc2cccc(N3CCc4c(nc(OC[C@@H]5CCN(C)C5)nc4N4CCN(C(=O)/C=C/CF)[C@@H](CC#N)C4)C3)c12 [Example 581, 2-[(2S)-1-[(E)-4-fluorobut-2-enoyl]-4-[7-(8-methyl-1-naphthyl)-2-[[(3R)-1-methylpyrrolidin-3-yl]methoxy]-6,8-dihydro-5H-pyrido[3,4-d]pyrimidin-4-yl]piperazin-2-yl]acetonitrile]
6 | C (“C”>50% POC) | 0.1 to 1000 | C=CC(=O)N1CCN(c2nc(OC[C@@H]3CCCN3C)nc3c2CCN(c2cccc4ccc(C)cc24)C3)CC1CC#N (stereo partly drawn) [Example 245, 2-[4-[7-(7-methyl-1-naphthyl)-2-[[(2S)-1-methylpyrrolidin-2-yl]methoxy]-6,8-dihydro-5H-pyrido[3,4-d]pyrimidin-4-yl]-1-prop-2-enoyl-piperazin-2-yl]acetonitrile]
7 | C (“C”>50% POC) | 0.1 to 1000 | Cc1cccc2cccc(N3CCc4c(nc(OC[C@H]5CCCN5C)nc4N4CCN(C(=O)/C=C/CF)[C@@H](CC#N)C4)C3)c12 [Example 563, 2-[(2S)-1-[(E)-4-Fluorobut-2-enoyl]-4-[7-(8-methyl-1-naphthyl)-2-[[(2R)-1-methylpyrrolidin-2-yl]methoxy]-6,8-dihydro-5H-pyrido[3,4-d]pyrimidin-4-yl]piperazin-2-yl]acetonitrile]
8 | C (“C”>50% POC) | 0.1 to 1000 | C=C(F)C(=O)N1CCN(c2nc(OC[C@@H]3C[C@@H](OC)CN3C)nc3c2CCN(c2cccc4cccc(Cl)c24)C3)C[C@@H]1CC#N [Example 577, 2-[(2S)-4-[7-(8-Chloro-1-naphthyl)-2-[[(2S,4R)-4-methoxy-1-methyl-pyrrolidin-2-yl]methoxy]-6,8-dihydro-5H-pyrido[3,4-d]pyrimidin-4-yl]-1-(2-fluoroprop-2-enoyl)piperazin-2-yl] acetonitrile]
9 | C (“C”>50% POC) | 0.1 to 1000 | C=C(F)C(=O)N1CCN(c2nc(OCCCN3C[C@@H]4C[C@H]3CO4)nc3c2CCN(c2cccc4cccc(C)c24)C3)C[C@@H]1CC#N [Example 566, 2-[(2S)-1-(2-Fluoroprop-2-enoyl)-4-[7-(8-methyl-1-naphthyl)-2-[3-[(1S,4S)-2-oxa-5-azabicyclo[2.2.1]heptan-5-yl]propoxy]-6,8-dihydro-5H-pyrido[3,4-d]pyrimidin-4-yl]piperazin-2-yl]acetonitrile]
10 | C (“C”>50% POC) | 0.1 to 1000 | CN1CCC[C@@H]1COc1nc2c(c(N3CCN(C(=O)/C=C/CF)[C@@H](CC#N)C3)n1)CCN(c1cccc3cccc(Cl)c13)C2 [Example 586, 2-[(2S)-4-[7-(8-chloro-1-naphthyl)-2-[[(2R)-1-methylpyrrolidin-2-yl]methoxy]-6,8-dihydro-5H-pyrido[3,4-d]pyrimidin-4-yl]-1-[(E)-4-fluorobut-2-enoyl]piperazin-2-yl]acetonitrile]
11 | B (“B”>25% POC-≤50% POC) | > 1000 | C=C(F)C(=O)N1CCN(c2nc(OC[C@@H]3CCCN3C)nc3c2CCN(c2cccc4cccc(C5CC5)c24)C3)C[C@@H]1CC#N [Example 590, 2-((S)-4-(7-(8-Cyclopropylnaphthalen-1-yl)-2-(((S)-1-methylpyrrolidin-2-yl)methoxy)-5,6,7,8-tetrahydropyrido[3,4-d]pyrimidin-4-yl)-1-(2-fluoroacryloyl)piperazin-2-yl)acetonitrile]

Row | SMILES | POC (KRas G12C [1]) | IC50 (KRas G12C [2]) [nM]
12 | C=CC(=O)N1CCN(c2nc(OC[C@@H]3C[C@@H](F)CN3C)nc3c2CCN(c2cccc4ccccc24)C3)CC1CC#N (stereo partly drawn) [Example 220, 2-(1-acryloyl-4-(2-(((2S,4R)-4-fluoro-1-methylpyrrolidin-2-yl)methoxy)-7-(naphthalen-1-yl)-5,6,7,8-tetrahydropyrido[3,4-d]pyrimidin-4-yl)piperazin-2-yl)acetonitrile] | C (“C”>50% POC) | 0.1 to 1000
13 | C=CC(=O)N1CCN(c2nc(OC[C@@H]3CCCN3C)nc3c2CCN(c2cccc4ccccc24)C3)CC1CC#N (stereo partly drawn) [Example 147, 2-[4-[2-[[(2S)-1-methylpyrrolidin-2-yl]methoxy]-7-(1-naphthyl)-6,8-dihydro-5H-pyrido[3,4-d]pyrimidin-4-yl]-1-prop-2-enoyl-piperazin-2-yl]acetonitrile] | C (“C”>50% POC) | 0.1 to 1000
14 | C=CC(=O)N1CCN(c2nc(OC[C@@H]3CCCN3C)nc3c2CCN(c2ccccc2C(F)(F)F)C3)CC1CC#N (stereo partly drawn) [Example 210, 2-(1-acryloyl-4-(2-(((S)-1-methylpyrrolidin-2-yl)methoxy)-7-(2-(trifluoromethyl)phenyl)-5,6,7,8-tetrahydropyrido[3,4-d]pyrimidin-4-yl)piperazin-2-yl)acetonitrile] | C (“C”>50% POC) | 0.1 to 1000
15 | C=CC(=O)N1CCN(c2nc(OC[C@@H]3CCCN3C)nc3c2CCN(c2c(C(F)(F)F)ccc4[nH]ncc24)C3)CC1CC#N (stereo partly drawn) [Example 149, 2-[4-[2-[[(2S)-1-methylpyrrolidin-2-yl]methoxy]-7-[5-(trifluoromethyl)-1H-indazol-4-yl]-6,8-dihydro-5H-pyrido[3,4-d]pyrimidin-4-yl]-1-prop-2-enoyl-piperazin-2-yl]acetonitrile] | B (“B”>25% POC-≤50% POC) | 0.1 to 1000
16 | C=CC(=O)N1CCN(c2nc(OC[C@@H]3CCCN3C)nc3c2CCN(c2cc(O)cc4ccccc24)C3)CC1CC#N (stereo partly drawn) [Example 182, 2-[4-[7-(3-hydroxy-1-naphthyl)-2-[[(2S)-1-methylpyrrolidin-2-yl]methoxy]-6,8-dihydro-5H-pyrido[3,4-d]pyrimidin-4-yl]-1-prop-2-enoyl-piperazin-2-yl]acetonitrile] | C (“C”>50% POC) | 0.1 to 1000
17 | C=CC(=O)N1CCN(c2nc(OC[C@@H]3CCCN3C)nc3c2CCN(c2c(C)ccc4[nH]ncc24)C3)CC1CC#N (stereo partly drawn) [Example 148, 2-[4-[7-(5-methyl-1H-indazol-4-yl)-2-[[(2S)-1-methylpyrrolidin-2-yl]methoxy]-6,8-dihydro-5H-pyrido[3,4-d]pyrimidin-4-yl]-1-prop-2-enoyl-piperazin-2-yl]acetonitrile] | C (“C”>50% POC) | 0.1 to 1000
18 | C=CC(=O)N1CCN(c2nc(OC[C@H]3CCCN3C)nc3c2CCN(c2cccc4ccccc24)C3)CC1CC#N (stereo partly drawn) [Example 183, 2-[4-[2-[[(2R)-1-methylpyrrolidin-2-yl]methoxy]-7-(1-naphthyl)-6,8-dihydro-5H-pyrido[3,4-d]pyrimidin-4-yl]-1-prop-2-enoyl-piperazin-2-yl]acetonitrile] | C (“C”>50% POC) | 0.1 to 1000
19 | C=CC(=O)N1CCN(c2nc(OCCCN3CCOCC3)nc3c2CCN(c2cc(O)cc4cc(C)[nH]c24)C3)CC1 [Example 167, 1-(4-(7-(5-hydroxy-2-methyl-1H-indol-7-yl)-2-(3-morpholinopropoxy)-5,6,7,8-tetrahydropyrido[3,4-d]pyrimidin-4-yl)piperazin-1-yl)prop-2-en-1-one] | B (“B”>25% POC-≤50% POC) | > 1000
